Experimental data as given in patent US20130324617A1, “CROWN-LIKE STRUCTURES AS A BIOMARKER FOR CANCER RISK AND CANCER PROGNOSIS” (MEMORIAL SLOAN-KETTERING CANCER CENTER, priority 2011, published 2013).

Tests used:
[1] = test system: THP-1 cells; experiment: Pro-inflammatory mediators (TNF-α, IL-1β, Cox-2, PGE2) in saturated fatty acid-treated THP-1 cells; assay type: cell-based, human; conditions: for induction of TNF-α in THP-1 cells: 0, 2.5, 5, 10 μmol/L saturated fatty acid, 24 hours, real-time PCR
Procedure: (§1) THP-1 cells (ATCC) were maintained in RPMI-1640 medium (Invitrogen) supplemented with 10% FBS. These cells were treated with phorbol 12-myristate 13-acetate (10 ng/mL) overnight to differentiate them into macrophages. Human monocytes (Astarte Biologics) were activated with IFNγ (15 ng/mL) and lipopolysaccharide (15 ng/mL) in RPMI-1640 medium for 4 days. THP-1 cells and blood monocyte-derived macrophages were then treated with saturated fatty acids (Nu-CheK Prep) as indicated. To prepare conditioned medium (CM), the cells were treated with saturated fatty acids for 12 hours in medium comprised of RPMI-1640 and preadipocyte medium (ScienCellTMResearch Laboratories) at a 1:1 ratio. Following treatment with fatty acids, the medium was removed and cells were washed thrice with PBS to remove fatty acids. Subsequently, fresh medium was added for 24 hours. This CM was then collected and centrifuged at 4,000 rpm for 30 minutes to remove cell debris. CM was used to treat preadipocytes.
(§2) Lysates were prepared by treating cells with lysis buffer, sonicating for 20 seconds on ice and centrifuging at 10,000×g for 10 minutes to remove particulate material. The protein concentration of the supernatant was measured by the method of Lowry et al. (Lowry 1951). SDS-PAGE was done under reducing conditions on 10% polyacrylamide gels. The resolved proteins were transferred onto nitrocellulose sheets and incubated with primary antisera. Antibodies to phospho-p65, p65, histone H3, Cox-2 and β-actin were used (Santa Cruz Biotechnology). Secondary antibody to IgG conjugated to horseradish peroxidase was used. The blot was probed with the ECL Western blot detection system.
(§3) Total RNA was isolated using the RNeasy mini kit (Qiagen). For tissue analyses, poly A RNA was prepared with an Oligotex mRNA mini kit (Qiagen). Poly A RNA was reversed transcribed using murine leukemia virus reverse transcriptase and oligo (dT)16 primer. The resulting cDNA was then used for amplification using primers listed Table 1. GAPDH and β-actin were used as endogenous normalization controls for tissue and cell culture analyses, respectively. Real-time PCR was performed using 2×SYBR green PCR master mix on a 7500 Real-time PCR system (Applied Biosystems). Relative fold induction was determined using the ddCT (relative quantification) analysis protocol.
LC/MS/MS analyses were performed using a Tandem Quadrupole Mass Spectrometer (Agilent) equipped with an Agilent 1200 binary pump HPLC system using a modified version of the method of Yang 2006. PGs were chromatographically separated using a Gemini 3-μm C6-phenyl 4.6×100 mm analytical column (Phenomenex). The mobile phase consisted of 0.1% formic acid in water (mobile phase A) and 0.1% formic acid in acetonitrile (mobile phase B). The chromatographic baseline resolution for the PGs of interest was achieved using a linear gradient that went from 20% to 40% mobile phase B for 12 minutes and then from 40% to 70% for 8 minutes. This was then increased to 90% mobile phase B over the next 2 minutes and kept at this level for an additional 3 minutes. The flow rate was 0.8 mL/min with a column temperature of 40° C. The mass spectrometer was operated in negative electrospray ionization mode with capillary voltage of 2.9 kV, a cone gas flow rate of […] and a shear gas flow rate of 12 mL/minute at 350° C. PGs were detected and quantified using multiple reaction mode monitoring of the transitions m/z 351 to 271 for PGE2 and m/z 355 to 275 for PGE2-d4. The results are expressed as nanograms of PGE2 per mg of protein. For measurements of PGE2 in cell culture media, EIA kits were used (Cayman Chemicals).
TNF-α and IL-1β levels were quantified in cell culture media using EIA kits (R & D systems).
Experiments were carried out in vitro to determine if saturated fatty acids stimulated the production of pro-inflammatory molecules by macrophages leading, in turn, to elevated aromatase expression in preadipocytes.

[2] = test system: aromatase in human preadipocytes; experiment: Induction of aromatase mRNA and activity in preadipocytes by macrophage-derived conditioned medium; assay type: cell-based; conditions: for aromatase mRNA and activity in human preadipocytes: preadipocytes treated 24 hours
Procedure: Human visceral preadipocytes (ScienCell™) were grown in preadipocyte medium containing 10% FBS.
as §1, §3
To determine aromatase activity, microsomes were prepared from cell lysates and tissues by differential centrifugation using established methods (Subbaramaiah 2006). Aromatase activity was quantified by measurement of the tritiated water released from 1β-[^3H]-androstenedione (Subbaramaiah 2008). The reaction was also performed in the presence of letrozole, a specific aromatase inhibitor, as a specificity control and without NADPH as a background control. Aromatase activity was normalized to protein concentration.
Further, to investigate whether conditioned medium from saturated fatty acid-treated macrophages induced aromatase in preadipocytes, THP-1 cells or human blood monocyte-derived macrophages were treated with 0, 2.5, 5 or 10 μmol/L LA, MA, PA or SA as described above to generate CM (n=6). This CM was used to treat preadipocytes for 24 hours. Aromatase mRNA and activity levels were determined. Treatment with CM derived from either saturated fatty acid-treated THP-1 cells or human blood monocyte-derived macrophages induced aromatase mRNA and activity in human preadipocytes. Neutralizing either TNF-α or IL-1β by incubating the CM from SA-treated cells with neutralizing antibodies to TNF-α, IL-1β or control IgG overnight at 4° C. attenuated CM-mediated induction of aromatase in preadipocytes.
Next, THP-1 cells were transfected as indicated with control siRNA or TNF-α siRNA, IL-1β siRNA or Cox-2 siRNA for 36 hours. Cells were then treated with vehicle (control) or 10 μmol/L SA as described above. The levels of TNFα, IL-1β and PGE2 were measured by enzyme immunoassay in the CM. Cox-2 protein abundance was determined by immunoblotting of whole cell lysates using β-actin was used as a loading control. Preadipocytes were treated with THP-1 cell-derived CM for 24 hours prior to measurements of aromatase mRNA and activity. […] Following treatment, the medium was removed and cells were washed. Subsequently, fresh medium was added for 24 hours to generate CM. PGE2 production was measured in CM. Preadipocytes were treated with THP-1 cell-derived CM for 24 hours prior to measurements of aromatase mRNA and activity. […]

[3] = test system: NF-κB; experiment: NF-κB-luciferase reporter assay in THP-1 cells; assay type: cell-based, human; conditions: for NF-κB-luciferase activity in THP-1 cells: 10 μmol/L fatty acid, 24 hours
Procedure: NF-κB-luciferase (Panomics) and pSVβgal (Promega) were transfected into THP-1 cells using the Amaxa system. After 24 hours of incubation, the medium was replaced with basal medium. The activities of luciferase (BD Biosciences) and β-galactosidase were measured in cellular extracts. For siRNA transfections, THP-1 cells were plated at 60% confluence and transfected with non-targeting siRNA or siRNA targeting TNF-α, IL-1β, Cox-2 and p65 using Dharmafect 4 for 36 hours. Subsequently, the cells were treated with vehicle or saturated fatty acids.
To investigate the potential role of the transcription factor NF-κB in saturated fatty acid-mediated induction of TNF-α, IL-1β and Cox-2 in macrophages, transient transfection assays were performed in saturated fatty acid-treated THP-1 cells with an NF-κB-luciferase reporter construct and pSV-βgal constructs.
The effects of BAY11-7082, a pharmacological inhibitor of NF-κB, were evaluated. THP-1 cells were transiently transfected with NF-κB-luciferase and pSV-βgal constructs and cells were subsequently treated with vehicle, 10 μmol/L SA or SA plus 0, 5 or 10 μmol/L of BAY11-7082 (InvivoGen) for 12 hours. NF-κB luciferase activity was normalized to β-galactosidase activity. Additionally, THP-1 cells were treated with vehicle (control), 10 μmol/L SA or SA plus 10 μmol/L BAY11-7082 for 24 hours. Levels of TNF-α protein, IL-1β protein and PGE2 in the CM were determined by enzyme immunoassay. Preadipocytes were treated with THP-1 cell-derived CM for 24 hours prior to measurements of aromatase mRNA and activity.

[4] = test system: p65; experiment: Immunoblotting of phospho-p65 and p65 in THP-1 cells; assay type: cell-based, human; conditions: 30 minutes; for phosphorylation of p65: THP-1 cells, 0, 2.5, 5 or 10 μmol/L fatty acid
Procedure: as §2
The abundance of phospho-p65 was determined by immunoblotting in cytosolic and nuclear preparations of cells treated with vehicle (control) or 10 μmol/L SA for 30 minutes. β-actin and histone H3 were used as cytosolic and nuclear markers, respectively.

[5] = test system: NF-κB binding sites; experiment: Electrophoretic mobility shift assay of nuclear protein from THP-1 cells; assay type: cell-based, human; conditions: THP-1 cells, 0, 2.5, 5 or 10 μmol/L SA, 1 hour; EMSA
Procedure: Nuclear extracts were prepared from mouse mammary glands using an EMSA kit (Promega). For binding studies, oligonucleotides containing NF-κB sites (Active Motif) were used. The complementary oligonucleotides were annealed in 20 mmol/L Tris (pH 7.6), 50 mmol/L NaCl, 10 mmol/L MgCl2, and 1 mmol/L dithiothreitol. The annealed oligonucleotide was phosphorylated at the 5′ end with [γ-^32P]ATP and T4 polynucleotide kinase. The binding reaction was performed by incubating 5 μg of nuclear protein in 20 mmol/L HEPES (pH 7.9), 10% glycerol, 300 μg of bovine serum albumin, and 1 μg of poly(dI·dC) in a final volume of 10 μL for 10 minutes at 25° C. The labeled oligonucleotides were added to the reaction mixture and allowed to incubate for an additional 20 minutes at 25° C. The samples were electrophoresed on a 4% nondenaturing polyacrylamide gel. The gel was then dried and subjected to autoradiography at −80° C.
DNA-protein binding complexes to NF-κB binding sites were examined by electrophoretic mobility shift assays (EMSA). Nuclear protein was prepared from THP-1 cells treated with 0, 2.5, 5 or 10 μmol/L of SA for 1 hour. In another experiment, nuclear protein was prepared from THP-1 cells treated with vehicle or 10 μmol/L SA for 1 hour, and the nuclear protein was incubated with normal IgG or different concentrations of antibodies to p65. […]

[6] = 10 μmol/L SA plus 10 μmol/L BAY11-7082, 24 hours, enzyme immunoassay
[7] = CM from THP-1 cells treated with 0, 2.5, 5 or 10 μmol/L fatty acid
[8] = CM from human blood monocyte-derived macrophages treated with 0, 2.5, 5 or 10 μmol/L fatty acid

`Cc1ccc(S(=O)(=O)/C=C/C#N)cc1` [BAY11-7082] was tested, and the “production of increased amounts of IL-1β in CM” value [1, 6] was “suppressed”, the “production of increased amounts of PGE2 in CM” value [1, 6] was “suppressed” and the “production of increased amounts of TNF-α in CM” value [1, 6] was “suppressed”. The “ability of macrophage-derived CM to induce aromatase expression and activity” value ([2]; following NF-κB inhibition of THP-1 cells with BAY11-7082, preadipocytes treated with CM 24 hours) was “suppressed” and the “SA-mediated activation of NF-κB (NF-κB luciferase activity)” value ([3]; 10 μmol/L SA plus 0, 5 or 10 μmol/L BAY11-7082, 12 hours) was “suppressed”.

`CCCCCCCCCCCC(=O)O` [LA, lauric acid] was tested, and the “induction of TNF-α in THP-1 cells” value [1] was “dose-dependent induction”, the “aromatase mRNA and activity in human preadipocytes” value (“aromatase mRNA and activity” below) [2, 7] was “induced” and the “aromatase mRNA and activity” value [2, 8] was “induced”.

For `CCCCCCCCCCCCCC(=O)O` [MA, myristic acid], the “induction of TNF-α in THP-1 cells” value [1] was “dose-dependent induction”, the “aromatase mRNA and activity” value [2, 7] was “induced” and the “aromatase mRNA and activity” value [2, 8] was “induced”.

For `CCCCCCCCCCCCCCCC(=O)O` [PA, palmitic acid], the “induction of TNF-α in THP-1 cells” value [1] was “dose-dependent induction”, the “aromatase mRNA and activity” value [2, 7] was “induced” and the “aromatase mRNA and activity” value [2, 8] was “induced”. For the same molecule, the “NF-κB-luciferase activity in THP-1 cells” value [3] was “induced” and the “phosphorylation of p65” value [4] was “stimulated”.

In the case of `CCCCCCCCCCCCCCCCCC(=O)O` [SA, stearic acid], the “induction of TNF-α in THP-1 cells” value [1] is reported as “dose-dependent induction”, the “aromatase mRNA and activity” value [2, 7] is reported as “induced” and the “aromatase mRNA and activity” value [2, 8] is reported as “induced”. For the same molecule, the “NF-κB-luciferase activity in THP-1 cells” value [3] was “induced”, the “binding of nuclear protein to a 32P-labeled NF-κB consensus sequence” value [5] was “stimulated” and the “phosphorylation of p65” value [4] was “stimulated”. For the same molecule, the “translocation of p65 from cytosol to nucleus” value ([4]; THP-1 cells, 10 μmol/L SA) was “stimulated”.
